{"source": "patent US8039496B2", "about": "“Therapeutic compounds” (Allergan, Inc., priority 2007, dated 2011)", "key": {"hEP2 [1]": {"target": "T1, hEP2 (Homo sapiens, UniProt P43116)", "T1 sequence (P43116 whole entry)": "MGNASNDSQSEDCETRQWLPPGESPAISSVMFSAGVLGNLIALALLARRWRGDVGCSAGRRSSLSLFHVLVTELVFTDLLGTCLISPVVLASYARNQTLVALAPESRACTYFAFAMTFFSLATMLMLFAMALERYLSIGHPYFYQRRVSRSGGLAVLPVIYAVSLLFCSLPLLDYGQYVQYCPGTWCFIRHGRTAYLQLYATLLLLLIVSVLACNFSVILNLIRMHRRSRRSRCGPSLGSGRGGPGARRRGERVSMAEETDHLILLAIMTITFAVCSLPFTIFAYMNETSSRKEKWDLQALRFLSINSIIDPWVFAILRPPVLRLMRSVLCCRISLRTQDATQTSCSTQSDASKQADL", "assay": "hEP2 flipr functional assay", "format": "cell-based", "conditions": "the 2nd table; read-out: hEP2 flipr EC50", "description": "(§1) U.S. patent application Ser. No. 11/553,143, filed on Oct. 26, 2006, describes the methods used to obtain the in vitro data in the table below."}, "hTP": {"target": "T2, hTP (Homo sapiens, UniProt P21731)", "T2 sequence (P21731 1-343)": "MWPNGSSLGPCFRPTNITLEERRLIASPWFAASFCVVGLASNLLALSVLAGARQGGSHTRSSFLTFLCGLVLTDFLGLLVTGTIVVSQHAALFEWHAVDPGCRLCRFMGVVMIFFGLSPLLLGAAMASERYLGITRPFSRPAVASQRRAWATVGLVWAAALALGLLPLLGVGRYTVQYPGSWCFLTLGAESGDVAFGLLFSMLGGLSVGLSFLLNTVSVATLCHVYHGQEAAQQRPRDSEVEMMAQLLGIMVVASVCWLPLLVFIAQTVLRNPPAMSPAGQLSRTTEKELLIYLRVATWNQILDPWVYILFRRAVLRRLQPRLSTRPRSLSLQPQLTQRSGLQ", "assay": "Other receptors: hTP", "format": "cell-based", "conditions": "the 2nd table", "description": "as §1"}, "hEP1": {"target": "T3, hEP1 (Homo sapiens, UniProt P34995)", "T3 sequence (P34995 1-402)": "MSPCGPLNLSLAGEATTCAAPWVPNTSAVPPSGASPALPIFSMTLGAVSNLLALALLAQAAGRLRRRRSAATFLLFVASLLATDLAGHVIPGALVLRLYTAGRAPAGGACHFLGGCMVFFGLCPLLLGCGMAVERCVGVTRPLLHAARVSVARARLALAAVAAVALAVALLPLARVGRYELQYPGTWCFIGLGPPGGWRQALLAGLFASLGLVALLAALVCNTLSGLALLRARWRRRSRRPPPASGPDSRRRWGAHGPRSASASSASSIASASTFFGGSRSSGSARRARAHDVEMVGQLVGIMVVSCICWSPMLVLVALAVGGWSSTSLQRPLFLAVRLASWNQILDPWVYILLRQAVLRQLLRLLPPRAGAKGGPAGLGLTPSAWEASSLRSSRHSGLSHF", "assay": "Other receptors: hEP1", "format": "cell-based", "conditions": "the 2nd table; read-out: Other Receptors hEP1", "description": "as §1"}, "hEP4 [2]": {"target": "T4, hEP4 (Homo sapiens, UniProt P35408)", "T4 sequence (P35408 whole entry)": "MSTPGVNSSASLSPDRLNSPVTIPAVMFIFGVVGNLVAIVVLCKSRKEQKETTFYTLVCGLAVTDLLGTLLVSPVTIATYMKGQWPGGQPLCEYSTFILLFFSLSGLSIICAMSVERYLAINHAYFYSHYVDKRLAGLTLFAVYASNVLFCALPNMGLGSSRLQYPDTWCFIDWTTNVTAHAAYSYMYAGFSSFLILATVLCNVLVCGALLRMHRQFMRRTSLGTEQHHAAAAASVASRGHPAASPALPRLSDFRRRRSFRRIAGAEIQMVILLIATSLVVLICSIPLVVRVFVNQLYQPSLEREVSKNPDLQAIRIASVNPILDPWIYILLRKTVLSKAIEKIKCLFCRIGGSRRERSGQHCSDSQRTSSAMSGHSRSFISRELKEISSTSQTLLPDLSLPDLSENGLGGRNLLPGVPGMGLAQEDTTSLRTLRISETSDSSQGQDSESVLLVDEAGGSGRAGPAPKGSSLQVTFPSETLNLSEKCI", "assay": "hEP4 flipr functional assay", "format": "cell-based", "conditions": "the 2nd table; read-out: hEP4 flipr EC50", "description": "as §1"}, "hEP4 [3]": {"target": "T4, hEP4", "assay": "hEP4 binding (Ki)", "conditions": "the 2nd table; read-out: hEP4 Ki", "description": "as §1"}, "hEP2 [4]": {"target": "T1, hEP2", "assay": "hEP2 binding (Ki)", "conditions": "the 2nd table; read-out: hEP2 Ki", "description": "as §1"}, "hEP2 [5]": {"target": "T1, hEP2", "assay": "hEP2 cAMP functional assay", "format": "cell-based", "conditions": "the 2nd table; read-out: hEP2 cAMP EC50", "description": "as §1"}, "hEP3": {"target": "T5, hEP3 (Homo sapiens, UniProt P43115)", "T5 sequence (P43115 1-390)": "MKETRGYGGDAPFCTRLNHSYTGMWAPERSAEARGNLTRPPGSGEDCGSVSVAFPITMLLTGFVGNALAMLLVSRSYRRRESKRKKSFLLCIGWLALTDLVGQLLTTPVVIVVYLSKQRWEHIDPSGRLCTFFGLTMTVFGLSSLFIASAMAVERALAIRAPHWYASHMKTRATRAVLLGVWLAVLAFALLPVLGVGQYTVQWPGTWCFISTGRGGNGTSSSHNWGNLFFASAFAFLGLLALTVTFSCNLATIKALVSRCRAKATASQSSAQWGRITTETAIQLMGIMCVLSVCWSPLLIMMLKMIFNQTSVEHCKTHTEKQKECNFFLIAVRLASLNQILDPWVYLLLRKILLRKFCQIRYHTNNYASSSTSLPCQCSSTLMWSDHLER", "assay": "Other receptors: hEP3 / hEP3A", "format": "cell-based", "conditions": "the 2nd table; read-out: Other Receptors hEP3", "description": "as §1"}, "hDP": {"target": "T6, hDP (Homo sapiens, UniProt Q13258)", "T6 sequence (Q13258 1-359)": "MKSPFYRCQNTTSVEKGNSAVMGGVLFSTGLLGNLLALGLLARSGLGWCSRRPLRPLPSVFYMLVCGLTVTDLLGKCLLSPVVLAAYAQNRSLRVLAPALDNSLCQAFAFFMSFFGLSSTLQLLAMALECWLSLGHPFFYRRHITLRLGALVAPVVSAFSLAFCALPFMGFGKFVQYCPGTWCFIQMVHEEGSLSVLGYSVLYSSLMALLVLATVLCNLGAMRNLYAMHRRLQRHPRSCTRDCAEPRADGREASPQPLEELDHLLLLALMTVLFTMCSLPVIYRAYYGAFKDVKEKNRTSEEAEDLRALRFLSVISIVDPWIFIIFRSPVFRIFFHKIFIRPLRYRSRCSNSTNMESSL", "assay": "Other receptors: hDP", "format": "cell-based", "conditions": "the 2nd table; read-out: Other Receptors hDP", "description": "as §1"}}, "note": "pEC50, pKi: −log10 of the molar value.", "data": [{"smiles": "COCc1cc(Cl)cc(OC[C@@H]2[C@@H](C/C=C\\CCCC(=O)O)[C@H](Cl)C[C@H]2O)c1", "note": "[(Z)-7-[(1R,2S,3R,5R)-5-Chloro-2-(3-chloro-5-methoxymethyl-phenoxymethyl)-3-hydroxy-cyclopentyl]-hept-5-enoic acid]", "values": [{"measurement": "pEC50", "setting": "hEP2 [1]", "result": 5.47}, {"measurement": "pEC50", "setting": "hTP", "result": "< 5.00"}, {"measurement": "pEC50", "setting": "hEP1", "result": 5.29}, {"measurement": "pEC50", "setting": "hEP4 [2]", "result": 5.32}, {"measurement": "pKi", "setting": "hEP4 [3]", "result": 5.84}, {"measurement": "pKi", "setting": "hEP2 [4]", "result": 7.41}, {"measurement": "pEC50", "setting": "hEP2 [5]", "result": 8.10}, {"measurement": "pEC50", "setting": "hEP3", "result": 5.14}]}, {"smiles": "O=C(O)CCC/C=C\\C[C@@H]1[C@@H](COc2cc(Cl)cc(CCO)c2)[C@H](O)C[C@H]1Cl", "note": "[(Z)-7-{(1R,2S,3R,5R)-5-Chloro-2-[3-chloro-5-(2-hydroxyethyl)-phenoxymethyl]-3-hydroxy-cyclopentyl}-hept-5-enoic acid]", "values": [{"measurement": "pEC50", "setting": "hDP", "result": "< 5.00"}, {"measurement": "pEC50", "setting": "hEP2 [1]", "result": 6.19}, {"measurement": "pEC50", "setting": "hTP", "result": "< 5.00"}, {"measurement": "pKi", "setting": "hEP2 [4]", "result": 6.97}, {"measurement": "pEC50", "setting": "hEP2 [5]", "result": 8.15}, {"measurement": "pEC50", "setting": "hEP3", "result": 5.05}]}]}
